Data published in PubChem BioAssay AID2060889 (Molecular Pharmacology Branch, DTP, NCI, 2025).
pIC50: −log10 of the molar value. “And” between values parts separate entries of the source, which are not always exact repeats. Equal values may be shown once.

Tested on: LG0567-F671-PDC complex spheroids viability
Assay: Anticancer human tumor LG0567-F671-PDC patient-derived lung adenocarcinoma cell line growth inhibition [RAS]
Settings: for viability, T/C: stronger effect = lower value
In short: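 Agents were tested in combination matrices in half-log decrements from a top concentration at or near clinical Cmax (10 microM if undetermined). Targets were multi-cell spheroids of tumour lines plus HUVEC and MSC stromal cells.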

[1] = curve of first compound, second compound 0.00316 µM
[2] = curve of first compound, second compound 0.01 µM
[3] = curve of first compound, second compound 0.0316 µM
[4] = curve of first compound, second compound 0.1 µM
[5] = curve of first compound, second compound 0.316 µM
[6] = curve of first compound, second compound 1 µM
[7] = second compound 0.00316 µM, first compound 0.0316 µM
[8] = second compound 0.00316 µM, first compound 0.1 µM
[9] = second compound 0.00316 µM, first compound 0.316 µM
[10] = second compound 0.00316 µM, first compound 1 µM
[11] = second compound 0.01 µM, first compound 0.0316 µM
[12] = second compound 0.01 µM, first compound 0.1 µM
[13] = second compound 0.01 µM, first compound 0.316 µM
[14] = second compound 0.01 µM, first compound 1 µM
[15] = second compound 0.0316 µM, first compound 0.0316 µM
[16] = second compound 0.0316 µM, first compound 0.1 µM
[17] = second compound 0.0316 µM, first compound 0.316 µM
[18] = second compound 0.0316 µM, first compound 1 µM
[19] = second compound 0.1 µM, first compound 0.0316 µM
[20] = second compound 0.1 µM, first compound 0.1 µM
[21] = second compound 0.1 µM, first compound 0.316 µM
[22] = second compound 0.1 µM, first compound 1 µM
[23] = second compound 0.316 µM, first compound 0.0316 µM
[24] = second compound 0.316 µM, first compound 0.1 µM
[25] = second compound 0.316 µM, first compound 0.316 µM
[26] = second compound 0.316 µM, first compound 1 µM
[27] = second compound 1 µM, first compound 0.0316 µM
[28] = second compound 1 µM, first compound 0.1 µM
[29] = second compound 1 µM, first compound 0.316 µM
[30] = second compound 1 µM, first compound 1 µM
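Also: spheroids exposed to compound for seven days before readout.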
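For pIC50 in this document: luminescence signal used as a proxy for viable cells.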

C=CC(=O)Nc1cc(Nc2nccc(-c3cn(C)c4ccccc34)n2)c(OC)cc1N(C)CCN(C)C + C=CC(=O)N1CCN(c2nc(OCC3CCCN3C)nc3c(F)c(-c4nc(N)cc(C)c4C(F)(F)F)c(Cl)cc23)C(C)C1
pIC50 [1]: > 8.50
pIC50 [2]: > 8.50
pIC50 [3]: > 8.50
pIC50 [4]: > 8.50
pIC50 [5]: > 8.50
pIC50 [6]: > 8.50
viability, T/C (second compound 0.00316 µM, first compound 0.00316 µM): 18.7%
viability, T/C (second compound 0.00316 µM, first compound 0.01 µM): 15.6%
viability, T/C [7]: 12.6%
viability, T/C [8]: 12.6%
viability, T/C [9]: 4.81%
viability, T/C [10]: 3.52%
viability, T/C (second compound 0.01 µM, first compound 0.00316 µM): 15.1%
viability, T/C (second compound 0.01 µM, first compound 0.01 µM): 12.1%
viability, T/C [11]: 10%
viability, T/C [12]: 8.19%
viability, T/C [13]: 4.72%
viability, T/C [14]: 2.49%
viability, T/C (second compound 0.0316 µM, first compound 0.00316 µM): 13.3%
viability, T/C (second compound 0.0316 µM, first compound 0.01 µM): 12.7%
viability, T/C [15]: 9.76%
viability, T/C [16]: 7.26%
viability, T/C [17]: 6.15%
viability, T/C [18]: 2.62%
viability, T/C (second compound 0.1 µM, first compound 0.00316 µM): 15%
viability, T/C (second compound 0.1 µM, first compound 0.01 µM): 11.8%
viability, T/C [19]: 9.84%
viability, T/C [20]: 7.87%
viability, T/C [21]: 4.28%
viability, T/C [22]: 2.86%
viability, T/C (second compound 0.316 µM, first compound 0.00316 µM): 14%
viability, T/C (second compound 0.316 µM, first compound 0.01 µM): 11.4%
viability, T/C [23]: 9.92%
viability, T/C [24]: 6.96%
viability, T/C [25]: 4.73%
viability, T/C [26]: 3.38%
viability, T/C (second compound 1 µM, first compound 0.00316 µM): 13.3%
viability, T/C (second compound 1 µM, first compound 0.01 µM): 12.2%
viability, T/C [27]: 11.4%
viability, T/C [28]: 10.6%
viability, T/C [29]: 4.57%
viability, T/C [30]: 3.23%

CCC(CC)c1cc(NC2CCC(N)C2)n2nccc2n1 (stereo unspecified)
viability, T/C (compound 0.0316 µM): 101% [middle of 4 runs]
viability, T/C (compound 0.1 µM): 106% [middle of 4 runs]
viability, T/C (compound 0.316 µM): 100% and 103% (2×) and 138%
viability, T/C (compound 1 µM): 111% and 103% (2×) and 118%
viability, T/C (compound 3.16 µM): 5.03% [middle of 4 runs]
viability, T/C (compound 10 µM): 0.67% [middle of 4 runs]
IC50 (curve of compound): 1.86 µM [middle of 4 runs]

C=CC(=O)N1CCN(c2nc(OCC3CCCN3C)nc3c(F)c(-c4nc(N)cc(C)c4C(F)(F)F)c(Cl)cc23)C(C)C1 (stereo unspecified)
viability, T/C (compound 0.00316 µM): 16.6% [middle of 12 runs]
viability, T/C (compound 0.01 µM): 14.1% [middle of 12 runs]
viability, T/C (compound 0.0316 µM): 13.4% [middle of 12 runs]
viability, T/C (compound 0.1 µM): 13.5% [middle of 12 runs]
viability, T/C (compound 0.316 µM): 13.8% [middle of 12 runs]
viability, T/C (compound 1 µM): 15.5% [middle of 12 runs]
pIC50 (compound alone, run of 09/09/2024): > 8.50
pIC50 (curve of compound): > 8.50

CC(C)n1nc(-c2ccc3oc(N)nc3c2)c2c(N)ncnc21 + CCn1c(-c2cccnc2C(C)OC)c2c3cc(ccc31)N1CCOC(CC(NC(=O)C(C(C)C)N(C)C(=O)C3(F)CCN(C(=O)C#CC(C)(C)N(C)C)CC3)C(=O)N3CCCC(N3)C(=O)OCC(C)(C)C2)C1
pIC50 (curve of first compound, second compound 0.000949 µM): > 9.50
pIC50 (curve of first compound, second compound 0.003 µM): > 9.50
pIC50 (curve of first compound, second compound 0.00949 µM): > 9.50
pIC50 (curve of first compound, second compound 0.03 µM): > 9.50
pIC50 (curve of first compound, second compound 0.0949 µM): > 9.50
pIC50 (curve of first compound, second compound 0.3 µM): > 9.50
viability, T/C (second compound 0.000949 µM, first compound 0.000316 µM): 14.9%
viability, T/C (second compound 0.000949 µM, first compound 0.001 µM): 14.4%
viability, T/C (second compound 0.000949 µM, first compound 0.00316 µM): 12.2%
viability, T/C (second compound 0.000949 µM, first compound 0.01 µM): 9.49%
viability, T/C (second compound 0.000949 µM, first compound 0.0316 µM): 8.53%
viability, T/C (second compound 0.000949 µM, first compound 0.1 µM): 14.7%
viability, T/C (second compound 0.003 µM, first compound 0.000316 µM): 15.6%
viability, T/C (second compound 0.003 µM, first compound 0.001 µM): 12.4%
viability, T/C (second compound 0.003 µM, first compound 0.00316 µM): 12.5%
viability, T/C (second compound 0.003 µM, first compound 0.01 µM): 10.2%
viability, T/C (second compound 0.003 µM, first compound 0.0316 µM): 8.31%
viability, T/C (second compound 0.003 µM, first compound 0.1 µM): 13.6%
viability, T/C (second compound 0.00949 µM, first compound 0.000316 µM): 13.3%
viability, T/C (second compound 0.00949 µM, first compound 0.001 µM): 13.2%
viability, T/C (second compound 0.00949 µM, first compound 0.00316 µM): 13.3%
viability, T/C (second compound 0.00949 µM, first compound 0.01 µM): 10.2%
viability, T/C (second compound 0.00949 µM, first compound 0.0316 µM): 7.68%
viability, T/C (second compound 0.00949 µM, first compound 0.1 µM): 12.6%
viability, T/C (second compound 0.03 µM, first compound 0.000316 µM): 12%
viability, T/C (second compound 0.03 µM, first compound 0.001 µM): 14%
viability, T/C (second compound 0.03 µM, first compound 0.00316 µM): 11%
viability, T/C (second compound 0.03 µM, first compound 0.01 µM): 9.46%
viability, T/C (second compound 0.03 µM, first compound 0.0316 µM): 7.2%
viability, T/C (second compound 0.03 µM, first compound 0.1 µM): 11.5%
viability, T/C (second compound 0.0949 µM, first compound 0.000316 µM): 11.1%
viability, T/C (second compound 0.0949 µM, first compound 0.001 µM): 10.9%
viability, T/C (second compound 0.0949 µM, first compound 0.00316 µM): 9.2%
viability, T/C (second compound 0.0949 µM, first compound 0.01 µM): 7.52%
viability, T/C (second compound 0.0949 µM, first compound 0.0316 µM): 5.8%
viability, T/C (second compound 0.0949 µM, first compound 0.1 µM): 10.4%
viability, T/C (second compound 0.3 µM, first compound 0.000316 µM): 9.46%
viability, T/C (second compound 0.3 µM, first compound 0.001 µM): 8.59%
viability, T/C (second compound 0.3 µM, first compound 0.00316 µM): 8.57%
viability, T/C (second compound 0.3 µM, first compound 0.01 µM): 7.61%
viability, T/C (second compound 0.3 µM, first compound 0.0316 µM): 4.68%
viability, T/C (second compound 0.3 µM, first compound 0.1 µM): 8.47%

CC1(O)CCCC1n1c(=O)c(C(F)F)cc2cnc(NC3CCN(S(C)(=O)=O)CC3)nc21 (stereo unspecified) + C=CC(=O)N1CCN(c2nc(OCC3CCCN3C)nc3c(F)c(-c4nc(N)cc(C)c4C(F)(F)F)c(Cl)cc23)C(C)C1
pIC50 [1]: > 7.50
pIC50 [2]: > 7.50
pIC50 [3]: > 7.50
pIC50 [4]: > 7.50
pIC50 [5]: > 7.50
pIC50 [6]: > 7.50
viability, T/C [7]: 20.1%
viability, T/C [8]: 16.5%
viability, T/C [9]: 20.5%
viability, T/C [10]: 23.8%
viability, T/C (second compound 0.00316 µM, first compound 3.16 µM): 20.7%
viability, T/C (second compound 0.00316 µM, first compound 10 µM): 14%
viability, T/C [11]: 16.5%
viability, T/C [12]: 15%
viability, T/C [13]: 16.2%
viability, T/C [14]: 19.1%
viability, T/C (second compound 0.01 µM, first compound 3.16 µM): 20.6%
viability, T/C (second compound 0.01 µM, first compound 10 µM): 15.1%
viability, T/C [15]: 13.8%
viability, T/C [16]: 12.9%
viability, T/C [17]: 17.8%
viability, T/C [18]: 18.3%
viability, T/C (second compound 0.0316 µM, first compound 3.16 µM): 17.6%
viability, T/C (second compound 0.0316 µM, first compound 10 µM): 13.4%
viability, T/C [19]: 12.7%
viability, T/C [20]: 13.8%
viability, T/C [21]: 15%
viability, T/C [22]: 17.8%
viability, T/C (second compound 0.1 µM, first compound 3.16 µM): 17.4%
viability, T/C (second compound 0.1 µM, first compound 10 µM): 13.3%
viability, T/C [23]: 14.5%
viability, T/C [24]: 15%
viability, T/C [25]: 16.6%
viability, T/C [26]: 17.1%
viability, T/C (second compound 0.316 µM, first compound 3.16 µM): 15.8%
viability, T/C (second compound 0.316 µM, first compound 10 µM): 13.1%
viability, T/C [27]: 16.2%
viability, T/C [28]: 15.3%
viability, T/C [29]: 17.7%
viability, T/C [30]: 19.8%
viability, T/C (second compound 1 µM, first compound 3.16 µM): 19.6%
viability, T/C (second compound 1 µM, first compound 10 µM): 12.4%
